Assay results taken from patent US6245817A, “NPY5 receptor antagonists and methods for using same” (Bayer Corporation, priority 1999, dated 2001).

Columns and labels:
Human NPY4/PP1 receptor = Human NPY4/PP1 receptor (Homo sapiens, UniProt P50391); assay: Human NPY4/PP1 Receptor Binding Assay; conditions: [125I]human PP; read-out: hNPY4 IC50
Human NPY1 Receptor = molecular target: T1, Human NPY1 Receptor (Homo sapiens, UniProt P25929); assay: Human NPY1 Receptor Binding Assay; conditions: SK-N-MC cells, [125I]PYY; read-out: hNPY1 IC50
T1 sequence (P25929 1-384): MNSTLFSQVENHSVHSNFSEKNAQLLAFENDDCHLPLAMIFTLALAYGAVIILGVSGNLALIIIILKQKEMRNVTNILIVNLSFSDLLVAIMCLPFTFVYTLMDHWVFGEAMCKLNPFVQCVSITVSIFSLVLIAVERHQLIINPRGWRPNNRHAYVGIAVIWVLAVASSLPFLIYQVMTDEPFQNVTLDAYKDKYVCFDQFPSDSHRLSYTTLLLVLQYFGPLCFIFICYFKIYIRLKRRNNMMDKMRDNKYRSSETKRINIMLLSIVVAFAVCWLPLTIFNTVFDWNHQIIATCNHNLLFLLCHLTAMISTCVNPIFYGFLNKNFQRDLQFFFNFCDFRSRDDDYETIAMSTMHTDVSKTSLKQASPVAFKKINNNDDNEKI

Human NPY2 receptor = molecular target: T2, Human NPY2 receptor (Homo sapiens, UniProt P49146); assay: Human NPY2 Receptor Binding Assay; conditions: [125I]PYY; read-out: hPPY2 IC50
T2 sequence (P49146 1-381): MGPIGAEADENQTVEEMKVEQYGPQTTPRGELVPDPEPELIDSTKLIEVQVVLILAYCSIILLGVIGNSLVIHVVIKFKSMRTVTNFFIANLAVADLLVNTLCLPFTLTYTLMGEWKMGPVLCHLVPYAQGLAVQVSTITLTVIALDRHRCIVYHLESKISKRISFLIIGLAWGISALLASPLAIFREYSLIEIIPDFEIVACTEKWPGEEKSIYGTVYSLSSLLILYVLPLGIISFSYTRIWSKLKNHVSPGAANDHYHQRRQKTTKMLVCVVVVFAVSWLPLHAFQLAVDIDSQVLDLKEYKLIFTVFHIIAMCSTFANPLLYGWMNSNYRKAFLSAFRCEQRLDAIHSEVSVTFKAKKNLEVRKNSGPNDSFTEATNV
Procedure: Binding assays were performed on GF/C Millipore 96-well plates pretreated with 0.02% polyethylenimine. The binding buffer for rat Y2 binding is Krebs-Ringer bicarbonate (pH 7.4) containing 0.01% BSA and 0.005% bacitracin. Samples consist of membrane protein, 25 pM [125I]PYY and drug dilution. Nonspecific binding is defined by 1 μpM NPY.
After a 2 hour incubation at room temperature with constant mixing, the samples are aspirated on a vacuum manifold, and rinsed with ice-cold binding buffer. The amount of radioactivity in each well is quantitated with either gamma counting or liquid scintillation.

Rat NPY5 Receptor = molecular target: T3, Rat NPY5 Receptor (Rattus norvegicus, UniProt Q63634); assay: Rat NPY5 Receptor Binding Assay; conditions: [125I]PYY; read-out: rNPY5 IC50
T3 sequence (Q63634 1-445): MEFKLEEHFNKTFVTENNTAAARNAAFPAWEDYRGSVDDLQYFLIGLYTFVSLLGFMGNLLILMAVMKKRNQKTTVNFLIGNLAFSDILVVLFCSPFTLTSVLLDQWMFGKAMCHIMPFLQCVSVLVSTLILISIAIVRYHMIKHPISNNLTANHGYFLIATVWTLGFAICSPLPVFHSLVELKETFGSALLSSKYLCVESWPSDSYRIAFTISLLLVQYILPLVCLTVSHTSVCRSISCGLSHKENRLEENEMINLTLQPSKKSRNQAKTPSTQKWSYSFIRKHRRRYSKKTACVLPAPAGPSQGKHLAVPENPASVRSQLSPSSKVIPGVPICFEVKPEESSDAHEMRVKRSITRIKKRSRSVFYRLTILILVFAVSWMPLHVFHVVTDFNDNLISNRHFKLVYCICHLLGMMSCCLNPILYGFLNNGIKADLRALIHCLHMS

Human NPY5 Receptor = molecular target: T4, Human NPY5 Receptor (Homo sapiens, UniProt Q15761); assay: Human NPY5 Receptor Binding Assay; conditions: [125I]PYY; read-out: hNPY5 IC50
T4 sequence (Q15761 1-445): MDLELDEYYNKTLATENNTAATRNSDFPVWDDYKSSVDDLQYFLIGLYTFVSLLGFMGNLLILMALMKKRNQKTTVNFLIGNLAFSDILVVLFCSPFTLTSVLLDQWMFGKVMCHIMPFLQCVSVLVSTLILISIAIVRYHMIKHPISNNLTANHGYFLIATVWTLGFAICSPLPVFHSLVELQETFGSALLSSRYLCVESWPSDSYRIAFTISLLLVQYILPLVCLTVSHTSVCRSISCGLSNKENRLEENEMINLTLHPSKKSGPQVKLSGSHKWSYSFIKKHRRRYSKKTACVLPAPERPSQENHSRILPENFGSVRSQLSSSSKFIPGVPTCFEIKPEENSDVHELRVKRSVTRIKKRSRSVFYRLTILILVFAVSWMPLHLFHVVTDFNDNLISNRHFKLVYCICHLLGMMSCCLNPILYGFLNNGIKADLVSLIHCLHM

Human NPY4/PP1 receptor, sequence (P50391 whole entry): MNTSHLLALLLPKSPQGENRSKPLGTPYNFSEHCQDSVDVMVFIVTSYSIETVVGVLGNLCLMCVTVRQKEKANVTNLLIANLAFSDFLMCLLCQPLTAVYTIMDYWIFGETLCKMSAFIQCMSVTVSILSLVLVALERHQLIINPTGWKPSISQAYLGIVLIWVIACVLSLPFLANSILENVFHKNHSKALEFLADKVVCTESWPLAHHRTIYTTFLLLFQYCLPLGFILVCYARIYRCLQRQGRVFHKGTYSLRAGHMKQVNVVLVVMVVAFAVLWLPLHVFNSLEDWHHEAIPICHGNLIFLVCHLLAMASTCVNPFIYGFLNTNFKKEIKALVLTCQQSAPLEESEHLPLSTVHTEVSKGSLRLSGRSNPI

IC50 (Human NPY4/PP1 receptor) [µM] | IC50 (Human NPY1 Receptor) [µM] | IC50 (Human NPY2 receptor) [µM] | IC50 (Rat NPY5 Receptor) [µM] | IC50 (Human NPY5 Receptor) [µM] | Structure (SMILES)
> 5 | > 5 | > 5 | 0.36 | – | O=C(CSc1ncc[nH]1)Nc1ccc(C(=O)c2ccccc2)cc1 [Compound 4, N-(4-Benzoyl-phenyl)-2-(1H-imidazol-2-ylsultanyl)-acetamide]
> 5 | > 5 | – | > 10 | > 10 | CCn1c(SCC(=O)Nc2cc(C)ccc2OC)nnc1C(F)(F)F [Compound 157, N-(2-Methoxy-5-methyl-phenyl)-2-(4-ethyl-5-trifluoromethyl-4H-[1,2,4]triazol-3-ylsulfanyl)-acetamide, reference compound]
> 5 | > 5 | – | > 10 | > 10 | CC(C)c1ccc(NC(=O)CSc2nnc(Cc3ccsc3)n2C)cc1 [Compound 158, N-(4-isopropyl-phenyl)-2-(4-methyl-5-thiophen-3-ylmethyl-4H-[1,2,4]triazol-3-ylsulfanyl)-acetamide, reference compound]
> 5 | > 5 | – | > 10 | > 10 | CSc1sc(-c2nnc(SCC(=O)Nc3ccc(Cl)cc3)n2C)c2c1C=CCC2 [Compound 159, N-(4-Chloro-phenyl)-2-[4-methyl-5-(3-methylsulfanyl-6,7-dihydro-benzo[c]thiophen-1-yl)-4H-[1,2,4]triazol-3-ylsulfanyl]-acetamide, reference compound]
> 5 | > 5 | – | > 10 | > 10 | Cn1c(SCC(=O)Nc2ccc(Cl)cc2)nnc1-c1ncc(C(F)(F)F)cc1Cl [Compound 160, reference compound]
> 5 | > 5 | – | > 10 | > 10 | COC(Cn1c(SCC(=O)Nc2ccc(Cl)cc2)nnc1-c1ccc(Cl)cc1)OC [Compound 161, N-(4-Chloro-phenyl)-2-[5-(4-chloro-phenyl)-4-(2,2-dimethoxy-ethyl)-4H-[1,2,4]triazol-3-ylsulfanyl]-ecetamide, reference compound]
> 5 | > 5 | – | > 10 | > 10 | COC(Cn1c(SCC(=O)Nc2ccc(Cl)cc2)nnc1-c1ccccc1)OC [Compound 162, N-(4-Chloro-phenyl)-2-(4-(2,2-dimethoxy-ethyl)-5-phenyl-4H-[1,2,4]triazol-3-ylsulfanyl]-acetamide, reference compound]
> 5 | > 5 | – | > 10 | > 10 | COC(Cn1c(SCC(=O)Nc2ccc(C(C)C)cc2)nnc1-c1ccccc1)OC [Compound 163, 2-[4-(2,2-Dimethoxy-ethyl)-5-phenyl-4H-[1,2,4]triazol-3-ylsulfanyl]-N-(4-isopmpyl-phenyl)-acetamide, reference compound]
> 5 | > 5 | – | 1.7 | 1.6 | Cn1cnnc1SCC(=O)Nc1ccc(C(C)(C)C)cc1 [Compound 164, N-(4-tert-Butyl-phenyl)-2-(4-methyl-4H-[1,2,4]triazol-3-ylsulfanyl)-acetamide, reference compound]
> 5 | > 5 | – | > 10 | > 10 | CC(C)c1ccc(NC(=O)CSc2nc3cc(C(F)(F)F)ccc3n2C(C)C)cc1 [Compound 165, N-(4-Isopropyl-phenyl)-2-(1-isopropyl-5-trifluoromethyl-1H-benzolmidazol-2-ylsulfanyl)-acetamide, reference compound]
> 5 | > 5 | – | > 10 | > 10 | COC(Cn1c(SCC(=O)Nc2ccc(C(C)C)cc2)nnc1-c1ccc(Cl)cc1)OC [Compound 166, 2-[5-(4-Chloro-phenyl)-4-(2,2-dimethoxy-ethyl)-4H-[1,2,4]triazol-3-ylsulfanyl]-N-(4-isopropyl-phenyl)-acetamide, reference compound]
> 5 | > 5 | – | > 10 | > 10 | Cn1c(CC2Sc3ccccc3NC2=O)nnc1SCC(=O)Nc1ccc(Cl)cc1 (stereo not drawn) [Compound 167, reference compound]
> 5 | > 5 | – | > 10 | > 10 | Cn1c(Cc2ccsc2)nnc1SCC(=O)Nc1ccc(Cl)cc1 [Compound 168, N-(4-Chloro-phenyl)-2-(4-methyl-5-thiophen-3-ylmethyl-4H-[1,2,4]triazol-3-ylsulfanyl)-acetamide, reference compound]
> 5 | > 5 | – | > 10 | > 10 | Cc1cc(-c2nc(C)c(-c3nnc(SCC(=O)Nc4ccc(Cl)cc4)n3C)s2)no1 [Compound 169, reference compound]
> 5 | > 5 | – | > 10 | > 10 | Cn1cnnc1SCC(=O)Nc1ccc(F)cc1 [Compound 170, N-(4-Fluoro-phenyl)-2-(4-methyl-4H-[1,2,4]triazol-3-ylsulfanyl)-acetamide, reference compound]
> 5 | > 5 | – | 0.525 | 0.553 | CCC(C)c1ccc(NC(=O)CSc2nnnn2C)cc1 (stereo not drawn) [Compound 171, N-(4-sec-Butyl-phenyl)-2-(1-methyl-1H-tetrazol-5-ylsulfanyl)-acetamide, reference compound]
> 5 | > 5 | – | 2 | 2.3 | CCC(C)c1ccc(NC(=O)CSc2nncn2C)cc1 (stereo not drawn) [Compound 172, reference compound]
> 5 | > 5 | – | 0.073 | 0.08 | Cn1cnnc1SCC(=O)Nc1ccc(C2CCCCC2)cc1 [Compound 173, N-(4-Cyclohexyl-phenyl)-2-(4-methyl-4H-[1,2,4]triazol-3-ylsulfanyl)-acetamide, reference compound]
> 5 | > 5 | – | > 10 | > 10 | Cc1ccc(NC(=O)CSc2nncn2C)cc1 [Compound 174, 2-(4-Methyl-4H-[1,2,4]triazol-3-ylsulfanyl)-N-p-tolyl-acetamide, reference compound]
> 5 | > 5 | > 5 | – | 7 | Cn1c(Cn2cc(C(F)(F)F)ccc2=O)nnc1SCC(=O)Nc1ccc(Cl)cc1 [Compound 175, N-(4-Chloro-phenyl)-2-[4-methyl-5-(2-oxo-5-trifluoromethyl-2H-pyridin-1-ylmethyl)-4H-[1,2,4]triazol-3-ylsulfanyl]-acetamide, reference compound]
> 5 | > 5 | > 5 | – | 3 | CC(C)c1ccc(NC(=O)CSc2nnc(Cn3cc(C(F)(F)F)ccc3=O)n2C)cc1 [Compound 176, N-(4-isopropyl-phenyl)-2-[4-methyl-5-(2-oxo-5-trifluoromethyl-2H-yridin-1-ylmethyl)-4H-[1,2,4]triazol-3-ylsulfanyl]-acetamide, reference compound]
